From paper PMC7953584, “An Experimental Study on [^125I]I-pHLIP (Var7) for SPECT/CT Imaging of an MDA-MB-231 Triple-Negative Breast Cancer Mouse Model by Targeting the Tumor Microenvironment” (Molecular Imaging, 2021)
Residues, ends and D or L forms follow the SMILES beside them.

Assays:
[1] = In vitro stability in PBS buffer (radiochemical purity); type: physicochemical; conditions: 24 h, paper chromatography
Protocol: (§1) The purity of [^125I]I-pHLIP (Var7) was determined by paper chromatography. Normal saline was used as the developing agent, and Xinhua Grade 1 chromatography paper was used as the stationary phase. An appropriate amount of [^125I]I-pHLIP (Var7) eluent was aspirated by a capillary pipette and spotted at the origin of the chromatographic filter paper. After drying, the paper was placed vertically into a test tube containing the developing agent; the unfolded chromatographic filter paper was removed, air dried, and cut at intervals of 1 cm. The radioactivity count was measured segment by segment to calculate the radiochemical purity.
(§2) The purified [^125I]I-pHLIP (Var7) was placed at 4°C, at room temperature (25°C) in PBS buffer, and at 37°C in mouse serum. The radiochemical purity at different time points was measured, and the stability was determined. • Two hundred microliters of purified [^125I]I-pHLIP (Var7) solution was placed at 4°C and at room temperature in PBS buffer. Radiochemical purity was determined immediately after purification and at 1, 2, 4, 8, and 24 h after purification • Fifty microliters of purified [^125I]I-pHLIP (Var7) solution was mixed with 100 μL of mouse serum and placed in a 37°C water bath. Radiochemical purity was determined immediately after mixing and at 1, 2, 4, 8, and 24 h after mixing

[2] = test system: MDA-MB-231 cells; assay: Cell binding fraction (cellular uptake test); type: cell-based, human; conditions: for binding fraction B/(B + F) × 100%: 3.7 kBq per well, γ counter, mean ± SD
Protocol: The human breast cancer cell line MDA-MB-231 was purchased from Shanghai Institute of Biochemistry and Cell Biology, Chinese Academy of Sciences and cultured in L-15 medium containing 10% fetal bovine serum at 37°C without CO2.
• Cell Plating. After the MDA-MB-231 cells were grown to greater than 90% confluence, the cell concentration was adjusted to approximately 1.0 × 10^5 cells/mL, 1 mL of the cell suspension was added to each well of a 12-well plate, and cells were cultured overnight at 37°C in a cell incubator. • Drug Administration. At the logarithmic growth phase, the cells were treated with drugs on the day after attachment; 3.7 kBq of [^125I]I-pHLIP (Var7) (20 μL volume) was added to each well. The pH inside the wells was adjusted to 7.4 and 6.0, yielding two groups of cells according to the pH value. • After 10 min, 40 min, 1 h, and 2 h of culture without CO2, the supernatant was aspirated into a tube and washed with PBS of the corresponding pH (pH 7.4 and 6.0) twice. The wash solution was also added to the supernatant tube. The cells were completely digested with trypsin, after which the cell suspension was aspirated into a tube and washed twice with PBS; the wash solution was also added to the tube. The radioactive counts of the cell tube (B) and supernatant tube (F) were measured by a γ counter. The cell binding fraction of the marker was calculated as B/(B + F) × 100%

[3] = In vitro stability in mouse serum at 37°C (radiochemical purity); type: in vitro ADME; conditions: 50 μL probe + 100 μL serum, paper chromatography, mean ± SD
Protocol: as §1, §2

CC(C)C[C@H](NC(=O)[C@H](CCC(=O)O)NC(=O)[C@H](CC(C)C)NC(=O)[C@H](CC(C)C)NC(=O)[C@H](CC(C)C)NC(=O)[C@@H](NC(=O)[C@H](CCC(=O)O)NC(=O)[C@@H](NC(=O)[C@@H]1CCCN1C(=O)[C@H](Cc1ccccc1)NC(=O)[C@H](CC(C)C)NC(=O)[C@H](Cc1c[nH]c2ccccc12)NC(=O)[C@H](CCC(=O)O)NC(=O)[C@H](CC(C)C)NC(=O)[C@H](Cc1ccc(O)c(I)c1)NC(=O)[C@H](CCCNC(=N)N)NC(=O)[C@H](C)NC(=O)[C@H](Cc1c[nH]c2ccccc12)NC(=O)[C@@H]1CCCN1C(=O)[C@H](CC(N)=O)NC(=O)[C@H](CCC(N)=O)NC(=O)[C@H](CCC(=O)O)NC(=O)[C@H](CCC(=O)O)NC(=O)[C@H](C)N)[C@@H](C)O)[C@@H](C)O)C(N)=O [[^125I]I-pHLIP (Var7)] (HELM PEPTIDE1{A.E.E.Q.N.P.W.A.R.[O=C([C@H](Cc1ccc(O)c(I)c1)N[*:1])[*:2]].L.E.W.L.F.P.T.E.T.L.L.L.E.L.[am]}$$$$V2.0)
stability (radiochemical purity) ([1]; 4°C): higher than 98% | stability (radiochemical purity) ([1]; room temperature (25°C)): higher than 98% | binding fraction B/(B + F) × 100% ([2]; pH 6.0, 10 min): 1.9 ± 0.1% | binding fraction B/(B + F) × 100% ([2]; pH 6.0, 40 min): 3.5 ± 0.1% | binding to MDA-MB-231 cells (in words) ([2]; pH 7.4): essentially did not bind | binding fraction B/(B + F) × 100% ([2]; pH 7.4, 10 min): 0.9 ± 0.1% | binding fraction B/(B + F) × 100% ([2]; pH 7.4, 40 min): 0.8 ± 0.1% | binding fraction B/(B + F) × 100% ([2]; pH 7.4, 1 h): 0.8 ± 0.1% | binding fraction B/(B + F) × 100% ([2]; pH 7.4, 2 h): 0.6 ± 0.1% | probe stability in serum (radiochemical purity) ([3]; 1 h): 97.8 ± 1.9% | probe stability in serum (radiochemical purity) ([3]; 2 h): 96.8 ± 1.0% | probe stability in serum (radiochemical purity) ([3]; 4 h): 94.5 ± 1.1% | probe stability in serum (radiochemical purity) ([3]; 8 h): 91.3 ± 2.6%
